These are literature values, as cited in PMC8177775 (Cancer Science, 2021).

Series [1] has as its system patients with acute myeloid leukemia. As to conditions: n = 36; cited from earlier work.
Series [2] deals with patients with solid tumors. As to conditions: cited from earlier work.
The subject of series [3] is patients with wild‐type p53 and RAS or RAF mutations and locally advanced or metastatic solid tumors. As to conditions: 26 patients; cited from earlier work.

As to `CC(C)[C@@H](CS(=O)(=O)C(C)C)N1C(=O)[C@@](C)(CC(=O)O)C[C@H](c2cccc(Cl)c2)[C@H]1c1ccc(Cl)cc1` [AMG 232], in series [1], the “Common treatment-related AEs” value was “nausea, diarrhea, and vomiting”; the MTD result was “not reached”.

Consider `CCOc1cc(C(C)(C)C)ccc1C1=N[C@@](C)(c2ccc(Cl)cc2)[C@@](C)(c2ccc(Cl)cc2)N1C(=O)N1CCN(CCCS(C)(=O)=O)CC1` [RG7112], for which, in series [2] (n = 76), the “Grade ≥ 3 lymphocyte count decreased” value is recorded as 11 patients and the “Grade ≥ 3 platelet count decreased” value was “two patients”. Besides, in series [2] (patients (n = 76) with solid tumors), the Tolerability entry was “generally well tolerated”.

As to `CC(C)(C)C[C@@H]1N[C@@H](C(=O)N[C@H]2CC[C@H](O)CC2)[C@H](c2cccc(Cl)c2F)[C@]12C(=O)Nc1cc(Cl)ccc12` [SAR405838], the “Most common reported AEs” value in series [3] is “diarrhea, blood creatine phosphokinase increased, nausea, and vomiting”.
